# From paper PMC8154557 (Journal of Medicinal Chemistry, 2021)
# Tests used:
# [1] = biological target: Stx1B (Shigella dysenteriae, UniProt Q7BQ98); assay: biochemical; type: binding, Escherichia coli
# [2] = system: T84 cells; assay: TEER measurement of epithelial integrity; conditions: 10%, positive control, 24 h
# [3] = system: T84 cells; assay: Viability MTT assay; conditions: 10%, positive control, 24 h
# Stx1B, sequence (Q7BQ98 21-89 limits assumed): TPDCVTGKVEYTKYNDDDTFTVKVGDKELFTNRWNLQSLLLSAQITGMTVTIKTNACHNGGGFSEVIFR
SMILES,rel. pot. per sugar [1],rel.pot. [1],other results
O=C(O)c1cc(OCc2cn([C@@H]3O[C@H](CO)[C@H](O[C@H]4O[C@H](CO)[C@H](O)[C@H](O)[C@H]4O)[C@H](O)[C@H]3O)nn2)cc(OCc2cn([C@@H]3O[C@H](CO)[C@H](O[C@H]4O[C@H](CO)[C@H](O)[C@H](O)[C@H]4O)[C@H](O)[C@H]3O)nn2)c1 [Compound 3],2.3,4.6,IC50 ([1]; IC50): 1000 µM
[N-]=[N+]=N[C@@H]1O[C@H](CO)[C@H](O[C@H]2O[C@H](CO)[C@H](O)[C@H](O)[C@H]2O)[C@H](O)[C@H]1O [Compound 1e],1,,
"OC[C@H]1O[C@@H](O[C@H]2[C@H](O)[C@@H](O)C(O)O[C@@H]2CO)[C@H](O)[C@@H](O)[C@H]1O (mixture of isomers) [Lactose, reference compound]",,,inhibition of the toxin (in words) [1]: did not show any activity
O=C(NCCOc1cc(OCCNC(=O)OCc2cn([C@@H]3O[C@H](CO)[C@H](O[C@H]4O[C@H](CO)[C@H](O)[C@H](O)[C@H]4O)[C@H](O)[C@H]3O)nn2)cc(C(=O)O)c1)OCc1cn([C@@H]2O[C@H](CO)[C@H](O[C@H]3O[C@H](CO)[C@H](O)[C@H](O)[C@H]3O)[C@H](O)[C@H]2O)nn1 [Compound 4],2,4,
O=C(NCCCCCCCCCCCCNC(=O)c1cc(OCc2cn([C@@H]3O[C@H](CO)[C@H](O[C@H]4O[C@H](CO)[C@H](O)[C@H](O)[C@H]4O)[C@H](O)[C@H]3O)nn2)cc(OCc2cn([C@@H]3O[C@H](CO)[C@H](O[C@H]4O[C@H](CO)[C@H](O)[C@H](O)[C@H]4O)[C@H](O)[C@H]3O)nn2)c1)c1cc(OCc2cn([C@@H]3O[C@H](CO)[C@H](O[C@H]4O[C@H](CO)[C@H](O)[C@H](O)[C@H]4O)[C@H](O)[C@H]3O)nn2)cc(OCc2cn([C@@H]3O[C@H](CO)[C@H](O[C@H]4O[C@H](CO)[C@H](O)[C@H](O)[C@H]4O)[C@H](O)[C@H]3O)nn2)c1 [Compound 6],92,367,
CCO [ethanol],,,transepithelial electrical resistance (TEER) values [2]: strongly decreased; T84 cell viability (MTT) [3]: significantly reduced
O=C(O)c1cc(OCCNC(=O)c2cc(OCc3cn([C@@H]4O[C@H](CO)[C@H](O[C@H]5O[C@H](CO)[C@H](O)[C@H](O)[C@H]5O)[C@H](O)[C@H]4O)nn3)cc(OCc3cn([C@@H]4O[C@H](CO)[C@H](O[C@H]5O[C@H](CO)[C@H](O)[C@H](O)[C@H]5O)[C@H](O)[C@H]4O)nn3)c2)cc(OCCNC(=O)c2cc(OCc3cn([C@@H]4O[C@H](CO)[C@H](O[C@H]5O[C@H](CO)[C@H](O)[C@H](O)[C@H]5O)[C@H](O)[C@H]4O)nn3)cc(OCc3cn([C@@H]4O[C@H](CO)[C@H](O[C@H]5O[C@H](CO)[C@H](O)[C@H](O)[C@H]5O)[C@H](O)[C@H]4O)nn3)c2)c1 [Compound 5],62.5,250,
